Assays:
[1] = Inhibition of HIV integrase by MWPA-Mg enzymatic assay; set-up: species or system Human immunodeficiency virus
[2] = system: Human immunodeficiency virus; test: Antiviral activity against HIV; format: functional, organism-based; settings: Human immunodeficiency virus 1
[3] = Inhibition of HIV integrase by MWPA-Mn enzymatic assay; set-up: species or system Human immunodeficiency virus

Row | SMILES | IC50 [1] [nM] | EC50 [2] [nM] | IC50 [3] [nM]
1 | COc1ccc(CN2CC(c3cc(OCc4ccc(F)cc4)ncn3)=C(O)C2=O)cc1 | 140 | 3300 | –
2 | CCCN1CC(c2cc(OCc3ccc(F)cc3)ncn2)=C(O)C1=O | 270 | 9000 | –
3 | NC(=O)/C(O)=C/c1cc(CCc2ccccc2)ncn1 | 6700 | 49000 | 71000
4 | CNC(=O)/C(O)=C/c1cc(CCc2ccccc2)ncn1 | 11000 | 24000 | 39000
5 | CN1CC(c2cc(CCc3ccc(F)cc3)ncn2)=C(O)C1=O | 320 | 800 | 320
6 | O=C(C1=C(O)C(=O)N(C2CCCC2)C1)c1ccc(Cc2ccc(F)cc2)o1 | 130 | 1500 | –
7 | O=C(/C(O)=C/c1cc(CCc2ccccc2)ncn1)N1CCOCC1 | 236000 | > 59000 | 262000
8 | O=C1C(O)=C(c2cc(OCc3ccc(F)cc3)ncn2)CN1CCO | 46 | 380 | –
9 | O=C(O)/C(O)=C/c1cc(CCc2ccc(F)cc2)ccn1 | 1800 | 27000 | 59
10 | CN1CC(c2ccc(Cc3ccc(F)cc3)cn2)=C(O)C1=O | 37 | 170 | < 21
11 | O=C1NCC(C(=O)c2ccc(Cc3ccc(F)cc3)o2)=C1O | 100 | 930 | –
12 | O=C(O)/C(O)=C/c1cc(CCc2ccccc2)ncn1 | 9600 | 34000 | 37
13 | CN1CC(C(=O)c2ccc(Cc3ccc(F)cc3)o2)=C(O)C1=O | 82 | 630 | –
14 | O=C1NCC(c2cc(OCc3ccc(F)cc3)ncn2)=C1O | 40 | 240 | –
15 | CC(C)N1CC(c2cc(OCc3ccc(F)cc3)ncn2)=C(O)C1=O | 82 | 1400 | –
16 | O=C(C1=C(O)C(=O)N(Cc2ccccc2)C1)c1ccc(Cc2ccc(F)cc2)o1 | 180 | 7400 | –
17 | O=C(/C=C(\O)c1nc[nH]n1)c1ccc(Cc2ccc(F)cc2)o1 [S-1360] | – | 200 | –
18 | O=C(O)/C(O)=C/c1cc(OCc2ccc(F)cc2)ccn1 | 93 | 7900 | 14
19 | CN1CC(c2cc(OCc3ccc(F)cc3)ncn2)=C(O)C1=O | 63 | 320 | 300
20 | O=C(C1=C(O)C(=O)N(CCN2CCOCC2)C1)c1ccc(Cc2ccc(F)cc2)o1 | 180 | 3400 | –
21 | O=C(O)/C(O)=C/c1ccc(Cc2ccc(F)cc2)cn1 | 1400 | 8800 | 95
22 | O=C(O)/C(O)=C/c1ccc(OCc2ccc(F)cc2)cn1 | 480 | 45700 | 66
23 | O=C(O)/C(O)=C/c1ccc(Oc2ccc(F)cc2)cn1 | 8700 | > 73000 | 110
24 | COc1ccc(N2CC(C(=O)c3ccc(Cc4ccc(F)cc4)o3)=C(O)C2=O)cc1 | 170 | 13000 | –
25 | CN1CC(c2ccc(Oc3ccc(F)cc3)cn2)=C(O)C1=O | 80 | 1900 | < 21
26 | O=C(C1=C(O)C(=O)N(CCO)C1)c1ccc(Cc2ccc(F)cc2)o1 | 75 | 5500 | –
27 | CN1CC(c2ccc(OCc3ccc(F)cc3)cn2)=C(O)C1=O | 30 | 180 | < 21
28 | COCCN1CC(c2cc(OCc3ccc(F)cc3)ncn2)=C(O)C1=O | 53 | 470 | –
29 | CC(C)N1CC(C(=O)c2ccc(Cc3ccc(F)cc3)o2)=C(O)C1=O | 79 | 550 | –
30 | COCCN1CC(C(=O)c2ccc(Cc3ccc(F)cc3)o2)=C(O)C1=O | 160 | 670 | –

Source: ChEMBL document CHEMBL1143732, “3-Hydroxy-1,5-dihydro-pyrrol-2-one derivatives as advanced inhibitors of HIV integrase” (Bioorg Med Chem, 2007)
